Several values for one entry are separate records, joined by “and”; a condition that tells them apart may be missing. Identical values can stand only once. Inconclusive results and toxic doses are left out.

Consider 18 compounds from PubChem BioAssay AID328 (DTP/NCI, 2004).

In this test the test system is BDF1 mice, P388 leukemia ip, median survival T/C. Briefly: NCI In Vivo Anticancer Drug Screen. Data for tumor model P388 Leukemia (intraperitoneal) in B6D2F1 (BDF1) mice. Particulars: endpoint: median survival time, higher = longer survival. Summed up: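 Vehicle-dosed animals serve as the reference; survival of compound-dosed, tumour-implanted mice is divided by it.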

Setting [1] is: dose: 50.0 mg/kg/injection, schedule: Q01DX009 (ip), vehicle: saline with Tween-80.
[2] abbreviates: dose: 100.0 mg/kg/injection, schedule: Q01DX009 (ip), vehicle: saline with Tween-80.
Where [3] appears, read: dose: 200.0 mg/kg/injection, schedule: Q01DX009 (ip), vehicle: saline with Tween-80.
Setting [4] is: dose: 25.0 mg/kg/injection, schedule: Q01DX009 (ip), vehicle: saline.
[5] abbreviates: dose: 50.0 mg/kg/injection, schedule: Q04DX003 (ip), vehicle: saline.
Where [6] appears, read: dose: 100.0 mg/kg/injection, schedule: Q01DX009 (ip), vehicle: Klucel (hydroxypropylcellulose) (HPC).
Setting [7] is: dose: 200.0 mg/kg/injection, schedule: Q01DX009 (ip), vehicle: Klucel (hydroxypropylcellulose) (HPC).
[8] abbreviates: dose: 25.0 mg/kg/injection, schedule: Q04DX003 (ip), vehicle: saline.

For the compound `COc1ccc(NC2=NCCS2)cc1`, the T/C is 109 % of control under setting [1] and 104 % of control under setting [2].

For the compound `O=[N+]([O-])c1ccc(Cl)nc1`, under setting [3], the T/C is 95 % of control.

Take `O=[n+]1ccn2ccccc2c1`: the T/C was 95 % of control under setting [4]; 114 % of control (dose: 50.0 mg/kg/injection, schedule: Q01DX009 (ip), vehicle: saline); 95 % of control (dose: 65.0 mg/kg/injection, schedule: Q01DX009 (ip), vehicle: saline); 100 % of control (dose: 75.0 mg/kg/injection, schedule: Q04DX003 (ip), vehicle: saline); 108 % of control (dose: 100.0 mg/kg/injection, schedule: Q01DX009 (ip), vehicle: saline); 90 % of control (dose: 150.0 mg/kg/injection, schedule: Q04DX003 (ip), vehicle: saline).

For the compound `CN(C)CCCNC(CC#N)CCC#N` (centres undefined), the T/C runs as follows: under setting [5], 100 % of control; (dose: 100.0 mg/kg/injection, schedule: Q04DX003 (ip), vehicle: saline) 109 % of control; (dose: 200.0 mg/kg/injection, schedule: Q04DX003 (ip), vehicle: saline) 100 % of control.

For the compound `C=CCN1C(=O)CN=C1SC(=O)Nc1ccc(Cl)cc1`, the T/C is 97 % of control (dose: 50.0 mg/kg/injection, schedule: Q01DX005 (ip), vehicle: saline with Tween-80) and 97 % of control (dose: 100.0 mg/kg/injection, schedule: Q01DX005 (ip), vehicle: saline with Tween-80).

In the case of `O=[N+]([O-])c1ccc(/C=C/C=C/c2ccc(Cl)cc2Cl)cc1`, the T/C reads like this: (dose: 50.0 mg/kg/injection, schedule: Q01DX009 (ip), vehicle: Klucel (hydroxypropylcellulose) (HPC)) 104 % of control; under setting [6], 113 % of control; (dose: 100.0 mg/kg/injection, schedule: Q04DX003 (ip), vehicle: Klucel (hydroxypropylcellulose) (HPC)) 104 % of control; under setting [7], 90 % of control; (dose: 200.0 mg/kg/injection, schedule: Q04DX003 (ip), vehicle: Klucel (hydroxypropylcellulose) (HPC)) 95 % of control; (dose: 400.0 mg/kg/injection, schedule: Q04DX003 (ip), vehicle: Klucel (hydroxypropylcellulose) (HPC)) 91 % of control.

With `CC(Cl)CN(CC(C)Cl)c1ccc(S(=O)(=O)Nc2ncccn2)cc1` (centres undefined), the T/C (dose: 12.0 mg/kg/injection, schedule: Q01DX009 (ip), vehicle: gum acacia) was 152 % of control; the T/C (dose: 26.0 mg/kg/injection, schedule: Q01DX009 (ip), vehicle: gum acacia) was 166 % of control and 172 % of control; the T/C (dose: 40.0 mg/kg/injection, schedule: Q01DX009 (ip), vehicle: gum acacia) was 175 % of control; the T/C (dose: 50.0 mg/kg/injection, schedule: Q01DX009 (ip), vehicle: gum acacia) was 190 % of control; the T/C (dose: 50.0 mg/kg/injection, schedule: Q04DX003 (ip), vehicle: gum acacia) was 100 % of control; the T/C (dose: 60.0 mg/kg/injection, schedule: Q01DX009 (ip), vehicle: gum acacia) is 183 % of control. Further, the T/C is, setting by setting: (dose: 90.0 mg/kg/injection, schedule: Q01DX009 (ip), vehicle: gum acacia) 183 % of control and 215 % of control; (dose: 100.0 mg/kg/injection, schedule: Q01DX009 (ip), vehicle: gum acacia) 272 % of control; (dose: 100.0 mg/kg/injection, schedule: Q04DX003 (ip), vehicle: gum acacia) 100 % of control; (dose: 133.0 mg/kg/injection, schedule: Q01DX009 (ip), vehicle: gum acacia) 230 % of control; (dose: 200.0 mg/kg/injection, schedule: Q04DX003 (ip), vehicle: gum acacia) 105 % of control.

On to `CCC(=O)/C=C/c1ccc(Cl)cc1`, for which the T/C runs as follows: under setting [1], 110 % of control; under setting [2], 109 % of control; under setting [3], 107 % of control.

For the compound `COc1cc(N2CCOCC2)ccc1N`, the T/C (dose: 1.56 mg/kg/injection, schedule: Q01DX009 (ip), vehicle: saline) was 154 % of control; the T/C (dose: 6.25 mg/kg/injection, schedule: Q01DX009 (ip), vehicle: saline) was 122 % of control; the T/C under setting [8] is 118 % of control; the T/C (dose: 44.0 mg/kg/injection, schedule: Q04DX003 (ip), vehicle: saline) is 108 % of control; the T/C (dose: 66.0 mg/kg/injection, schedule: Q04DX003 (ip), vehicle: saline) was 116 % of control.

For `Clc1cc(C(Cl)(Cl)Cl)c(Cl)cc1C(Cl)(Cl)Cl`, the T/C is 100 % of control (dose: 100.0 mg/kg/injection, schedule: Q04DX003 (ip), vehicle: saline with Tween-80); 105 % of control (dose: 200.0 mg/kg/injection, schedule: Q04DX003 (ip), vehicle: saline with Tween-80); 110 % of control (dose: 400.0 mg/kg/injection, schedule: Q04DX003 (ip), vehicle: saline with Tween-80).

As to `OCC(I)C(CO)[n+]1ccccc1` (centres undefined), the T/C (dose: 12.5 mg/kg/injection, schedule: Q01DX009 (ip), vehicle: saline) was 107 % of control; the T/C (dose: 12.5 mg/kg/injection, schedule: Q04DX003 (ip), vehicle: saline) is 88 % of control; the T/C under setting [4] is 107 % of control; the T/C under setting [8] is 103 % of control; the T/C under setting [5] was 100 % of control.

As for `CCC(=O)O[C@H]1CC[C@H]2[C@@H]3CCC4=CC(=O)CC[C@]4(C)[C@H]3CC[C@]12C`, the T/C by setting is: (dose: 100.0 mg/kg/injection, schedule: Q01DX009 (sc), vehicle: steriod suspending solution) 104 % of control; (dose: 100.0 mg/kg/injection, schedule: Q04DX003 (sc), vehicle: steriod suspending solution) 105 % of control; (dose: 200.0 mg/kg/injection, schedule: Q01DX009 (sc), vehicle: steriod suspending solution) 87 % of control; (dose: 200.0 mg/kg/injection, schedule: Q04DX003 (sc), vehicle: steriod suspending solution) 100 % of control; (dose: 400.0 mg/kg/injection, schedule: Q01DX009 (sc), vehicle: steriod suspending solution) 91 % of control; (dose: 400.0 mg/kg/injection, schedule: Q04DX003 (sc), vehicle: steriod suspending solution) 100 % of control.

Consider `CCSc1nc(Cl)cc(Sc2nc(N)nc3nc[nH]c23)n1`, for which the T/C (dose: 17.0 mg/kg/injection, schedule: Q01DX010 (ip), vehicle: acetone) was 113 % of control; the T/C (dose: 18.0 mg/kg/injection, schedule: Q01DX009 (ip), vehicle: Klucel (hydroxypropylcellulose) (HPC)) is 115 % of control; the T/C (dose: 26.0 mg/kg/injection, schedule: Q01DX010 (ip), vehicle: acetone) was 168 % of control; the T/C (dose: 40.0 mg/kg/injection, schedule: Q01DX010 (ip), vehicle: saline) was 150 % of control; the T/C (dose: 60.0 mg/kg/injection, schedule: Q01DX010 (ip), vehicle: saline) was 165 % of control; the T/C (dose: 132.0 mg/kg/injection, schedule: Q01DX010 (ip), vehicle: saline) was 110 % of control. Moreover, the T/C under setting [7] was 95 % of control and the T/C (dose: 200.0 mg/kg/injection, schedule: Q01DX010 (ip), vehicle: saline) was 90 % of control.

Turning to `CC(=O)OC1CCCc2c1nc1ccccc1[n+]2[O-]` (centres undefined), the T/C was 88 % of control under setting [1], 100 % of control under setting [2] and 96 % of control under setting [3].

Take `C/C=C(\CC)C(=O)NC(N)=O`: the T/C runs as follows: under setting [6], 95 % of control; under setting [7], 100 % of control; (dose: 400.0 mg/kg/injection, schedule: Q01DX009 (ip), vehicle: Klucel (hydroxypropylcellulose) (HPC)) 122 % of control.

As for `CSc1nnc([N+](=O)[O-])s1`, the T/C (dose: 1.56 mg/kg/injection, schedule: Q01DX009 (ip), vehicle: Klucel (hydroxypropylcellulose) (HPC)) was 110 % of control; the T/C (dose: 3.12 mg/kg/injection, schedule: Q01DX009 (ip), vehicle: Klucel (hydroxypropylcellulose) (HPC)) was 100 % of control; the T/C (dose: 6.25 mg/kg/injection, schedule: Q01DX009 (ip), vehicle: Klucel (hydroxypropylcellulose) (HPC)) was 110 % of control.

Regarding `CC(NC(=O)c1ccc(Cl)cc1Cl)c1ccccc1` (centres undefined), the T/C by setting is: (dose: 100.0 mg/kg/injection, schedule: Q01DX001 (ip), vehicle: other) 100 % of control; (dose: 400.0 mg/kg/injection, schedule: Q01DX001 (ip), vehicle: other) 95 % of control.

In the case of `COc1cc2c3c(c4ccc(O)cc4c2cc1OC)[C@@H](O)[C@@H]1CCCN1C3`, the T/C is 115 % of control (dose: 2.5 mg/kg/injection, schedule: Q01DX009 (ip), vehicle: water) and 123 % of control (dose: 5.0 mg/kg/injection, schedule: Q01DX009 (ip), vehicle: water).
